The record followed here is patent US20240247080A1, “GLP1/GIP/NPY2 RECEPTOR TRIPLE AGONISTS” (Boehringer Ingelheim International GmbH, priority 2022, published 2024).

Type in all cases: cell-based
One assay has as its target T1, hGIPR (Homo sapiens, UniProt P48546).
T1 construct: expressed in transfected cells; host or cells: CHO cells carrying a CRE-luciferase reporter gene
T1 sequence (P48546 22-466): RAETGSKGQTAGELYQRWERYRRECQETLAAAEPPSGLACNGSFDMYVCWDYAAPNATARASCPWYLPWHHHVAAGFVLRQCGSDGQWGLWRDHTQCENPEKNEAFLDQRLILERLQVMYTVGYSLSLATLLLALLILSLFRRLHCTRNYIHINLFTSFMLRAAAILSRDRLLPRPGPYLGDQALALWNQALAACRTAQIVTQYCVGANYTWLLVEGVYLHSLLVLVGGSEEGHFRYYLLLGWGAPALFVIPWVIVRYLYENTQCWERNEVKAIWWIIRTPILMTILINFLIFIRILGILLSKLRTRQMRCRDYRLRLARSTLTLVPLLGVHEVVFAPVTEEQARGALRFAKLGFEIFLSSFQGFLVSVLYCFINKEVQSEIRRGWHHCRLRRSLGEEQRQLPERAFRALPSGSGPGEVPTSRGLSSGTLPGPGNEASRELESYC
Description: hGIPR CreLuc reporter gene assay in 0.5% and 100% plasma. Particulars: CreLuc reporter gene assay. Put shortly:
(§1)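 HEK-293 cells co-expressing GLP-1 or NPY2 receptor and CHO cells expressing GIP receptor, each carrying a CRE-driven luciferase reporter, were stimulated with peptides for 4 hours at 37 °C. Luminescence was read after Bright-Glo addition. EC50 came from 8-point, four-decade curves fitted by variable-slope non-linear regression.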
(A reporter such as luciferase makes a cellular process visible.)

Another assay has as its target T2, hGLP1R (Homo sapiens, UniProt P43220).
T2 construct: expressed in transfected cells; host or cells: HEK-293 cells carrying a CRE-luciferase reporter gene
As to the kind of experiment: hGLP1R CreLuc reporter gene assay in 0.5% and 100% plasma. Particulars: CreLuc reporter gene assay, 0.5% human plasma; read-out: hGLP1R 0.5% hP. Put shortly:
as §1

The next assay deals with T3, hNPY2R (Homo sapiens, UniProt P49146).
T3 construct: expressed in transfected cells; host or cells: HEK-293 cells carrying a CRE-luciferase reporter gene
T3 sequence (P49146 1-381): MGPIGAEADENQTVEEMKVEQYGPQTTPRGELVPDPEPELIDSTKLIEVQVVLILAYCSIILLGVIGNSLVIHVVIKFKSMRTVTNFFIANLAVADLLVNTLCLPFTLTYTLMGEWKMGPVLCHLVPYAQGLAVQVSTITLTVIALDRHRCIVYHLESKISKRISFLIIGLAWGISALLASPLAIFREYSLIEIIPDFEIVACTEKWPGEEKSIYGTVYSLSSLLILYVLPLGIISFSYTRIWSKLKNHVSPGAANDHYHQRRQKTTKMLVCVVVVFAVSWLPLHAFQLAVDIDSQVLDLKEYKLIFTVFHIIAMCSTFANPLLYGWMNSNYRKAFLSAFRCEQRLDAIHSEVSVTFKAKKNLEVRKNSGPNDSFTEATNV
As to the kind of experiment: hNPY2R CreLuc reporter gene assay in 0.5% and 100% plasma. Particulars: CreLuc reporter gene assay. Put shortly:
as §1

Setting [1] is: 0.5% human plasma, read-out: hGIPR 0.5% hP.
The mark [2] stands for this setting: 100% human plasma, read-out: hGIPR 100% hP.
Setting [3] is: 100% human plasma, read-out: hNPY2R 100% hP.
Where [4] appears, read: 0.5% human plasma, read-out: hNPY2R 0.5% hP.

Read-outs that look alike come from different tables or passages of the source. Starred links: 1 amine or outer side, 2 acyl side, 3 side chain; linkers in the order of their positions; H or OH if unused. Non-standard residues stand in square brackets, D forms with d. Groups on a side chain read outwards from the residue. No end group written: not given here. *: point of attachment. C20 diacid = O=C(O)CCCCCCCCCCCCCCCCCCC(=O)*; C18 diacid = O=C(O)CCCCCCCCCCCCCCCCC(=O)*; γGlu = O=C(O)[C@H](CCC(=O)[*:2])N[*:1]; εLys = N[C@@H](CCCCN[*:1])C(=O)[*:2]; AEEA = NCCOCCOCC(=O)O; Aib = CC(C)(N)C(=O)O; Ahx = NCCCCCC(=O)O

T2 sequence (P43220 24-463): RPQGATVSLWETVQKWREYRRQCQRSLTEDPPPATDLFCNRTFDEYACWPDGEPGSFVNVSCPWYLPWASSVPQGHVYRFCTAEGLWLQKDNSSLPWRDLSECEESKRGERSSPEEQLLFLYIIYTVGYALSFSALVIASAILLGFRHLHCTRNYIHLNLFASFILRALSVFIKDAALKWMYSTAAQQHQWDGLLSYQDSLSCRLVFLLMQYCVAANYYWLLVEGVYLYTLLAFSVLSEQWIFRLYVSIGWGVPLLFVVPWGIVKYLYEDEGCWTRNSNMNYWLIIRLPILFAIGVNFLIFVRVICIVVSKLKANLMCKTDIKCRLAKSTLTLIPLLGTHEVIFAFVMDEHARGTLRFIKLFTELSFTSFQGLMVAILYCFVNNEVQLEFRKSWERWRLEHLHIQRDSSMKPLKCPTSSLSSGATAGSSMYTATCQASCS

As for `CC[C@H](C)[C@H](NC(=O)[C@H](CC(C)C)NC(=O)[C@H](Cc1c[nH]c2ccccc12)NC(=O)[C@H](CCC(=O)O)NC(=O)[C@@H](NC(=O)[C@H](Cc1ccccc1)NC(=O)[C@H](C)NC(=O)C(C)(C)NC(=O)[C@H](CCC(N)=O)NC(=O)[C@H](C)NC(=O)[C@H](CCC(N)=O)NC(=O)[C@H](CCCCN)NC(=O)[C@H](CCC(=O)O)NC(=O)[C@H](CC(C)C)NC(=O)C(C)(C)NC(=O)[C@@H](NC(=O)[C@H](CO)NC(=O)[C@H](Cc1ccc(O)cc1)NC(=O)[C@H](CC(=O)O)NC(=O)[C@H](CO)NC(=O)[C@@H](NC(=O)[C@H](Cc1ccccc1)NC(=O)[C@@H](NC(=O)CNC(=O)[C@H](CCC(=O)O)NC(=O)C(C)(C)NC(=O)[C@@H](N)Cc1ccc(O)cc1)[C@@H](C)O)[C@@H](C)O)[C@@H](C)CC)C(C)C)C(=O)N[C@@H](CCCCNC(=O)[C@@H](N)CCCCNC(=O)CC[C@H](NC(=O)CC[C@H](NC(=O)CC[C@H](NC(=O)CC[C@H](NC(=O)CC[C@H](NC(=O)CC[C@H](NC(=O)CCCCCCCCCCCCCCCCCCC(=O)O)C(=O)O)C(=O)O)C(=O)O)C(=O)O)C(=O)O)C(=O)O)C(=O)NCC(=O)NCC(=O)N1CCC[C@H]1C(=O)N[C@@H](CO)C(=O)N[C@@H](CCC(=O)O)C(=O)N1CCC[C@H]1C(=O)N[C@@H](CCC(=O)O)C(=O)N[C@@H](CO)C(=O)N[C@@H](CC(C)C)C(=O)N[C@@H](CCCNC(=N)N)C(=O)N[C@@H](Cc1c[nH]cn1)C(=O)N[C@@H](Cc1ccc(O)cc1)C(=O)N[C@@H](Cc1ccc(O)cc1)C(=O)N[C@@H](CC(N)=O)C(=O)N[C@@H](Cc1c[nH]c2ccccc12)C(=O)N[C@@H](CC(C)C)C(=O)N[C@H](C(=O)N[C@@H](CCCNC(=N)N)C(=O)N[C@@H](CCC(N)=O)C(=O)N[C@@H](CCCNC(=N)N)C(=O)N[C@@H](Cc1ccc(O)cc1)C(N)=O)[C@@H](C)O` [Compound 122, Y-Aib-E-G-T-F-T-S-D-Y-S-I-Aib-L-E-K-Q-A-Q-Aib-A-F-V-E-W-L-I-K(1,3)-GGPSEPESLRHYYNWLTRQRY-NH2.C20DA-gGlu-gGlu-gGlu-gGlu-gGlu-gGlu-eLys(1,2)], the EC50 on hGIPR (setting [1]) is 0.08 nM; on hGIPR (setting [2]) it was 1.53 nM; at hGLP1R, 0.22 nM; on hNPY2R (setting [3]), 78.9 nM.
“Y[Aib]EGTFTSDYSI[Aib]LEKQAQ[Aib]AFVQWLIK([Ahx-γGlu-γGlu-γGlu-γGlu-γGlu-γGlu-C18 diacid])GGPSEGASLRHYYNWLTRQRY-NH2 [Compound 245, Y-Aib-E-G-T-F-T-S-D-Y-S-I-Aib-L-E-K-Q-A-Q-Aib-A-F-V-Q-W-L-I-K(1,3)-GGPSEGASLRHYYNWLTRQRY-NH2.C18DA-gGlu-gGlu-gGlu-glu-gGlu-Glu-AHX(1,2)]”: the EC50 came to 0.37 nM at hGIPR (setting [1]), 0.09 nM at hGLP1R and 24.5 nM on hNPY2R (setting [4]).
Consider “H-Y[Aib]EGTFTSDYSI[Aib]LEKQAQ[Aib]AFVEWLIK([εLys-γGlu-γGlu-γGlu-γGlu-γGlu-γGlu-C20 diacid])GGPSSGASIRHYYNWLTRQRY-NH2 [Compound 132, Y-Aib-E-G-T-F-T-S-D-Y-S-I-Aib-L-E-K-Q-A-Q-Aib-A-F-V-E-W-L-I-K(1,3)-GGPSSGASIRHYYNWLTRQRY-NH2.C20DA-gGlu-gGlu-gGlu-gGlu-gGlu-gGlu-eLys(1,2)]”, for which the EC50 on hGIPR (setting [1]) was determined as 0.22 nM; on hGLP1R it was 0.14 nM; at hNPY2R (setting [3]), 45.4 nM.
As to “H-Y[Aib]EGTFTSDYSI[Aib]LEKQAQ[Aib]AFVQWLIK([γGlu-γGlu-γGlu-γGlu-γGlu-C20 diacid])GGPESPASLRHYYNWLTRQRY-NH2 [Compound 11, Y-Aib-E-G-T-F-T-S-D-Y-S-I-Aib-L-E-K-Q-A-Q-Aib-A-F-V-Q-W-L-I-K(1,3)-GGPESPASLRHYYNWLTRQRY-NH2.C20DA-gGlu-gGlu-gGlu-gGlu-gGlu(1,2)]”, the EC50 on hGIPR (setting [1]) was 0.17 nM; on hGLP1R, 0.11 nM; at hNPY2R (setting [4]) it was 10.3 nM.
For “H-Y[Aib]EGTFTSDYSI[Aib]LEKQAQ[Aib]AFVEWLIK([εLys-γGlu-γGlu-γGlu-γGlu-γGlu-C20 diacid])GGPEEGASLRHYYNWLTRQRY-NH2 [Compound 230, Y-Aib-E-G-T-F-T-S-D-Y-S-I-Aib-L-E-K-Q-A-Q-Aib-A-F-V-E-W-L-I-K(1,3)-GGPEEGASLRHYYNWLTRQRY-NH2.C20DA-gGlu-gGlu-gGlu-gGlu-gGlu-eLys(1,2)]”, the EC50 worked out at 0.28 nM on hGIPR (setting [1]), 1.43 nM on hGIPR (setting [2]), 0.29 nM at hGLP1R and 15.4 nM on hNPY2R (setting [4]).
As to “H-Y[Aib]EGTFTSDYSI[Aib]LEKQAQ[Aib]AFVQWLIK([εLys-γGlu-γGlu-γGlu-γGlu-γGlu-C18 diacid])GGPSEGASLRHYYNWLTRQRY-NH2 [Compound 267, Y-Aib-E-G-T-F-T-S-D-Y-S-I-Aib-L-E-K-Q-A-Q-Aib-A-F-V-Q-W-L-I-K(1,3)-GGPSEGASLRHYYNWLTRQRY-NH2.C18DA-gGlu-gGlu-gGlu-gGlu-gGlu-eLys(1,2)]”, the EC50 on hGIPR (setting [1]) turned out to be 0.12 nM; at hGIPR (setting [2]) it was 1.18 nM; at hGLP1R, 0.07 nM; at hNPY2R (setting [3]), 27.6 nM.
On to “H-Y[Aib]EGTFTSDYSI[Aib]LEKQAQ[Aib]AFVEWLIK([εLys-γGlu-γGlu-γGlu-γGlu-γGlu-γGlu-C20 diacid])GGPSSPASLRHYYNWLTRQRY-NH2 [Compound 95, Y-Aib-E-G-T-F-T-S-D-Y-S-I-Aib-L-E-K-Q-A-Q-Aib-A-F-V-E-W-L-I-K(1,3)-GGPSSPASLRHYYNWLTRQRY-NH2.C20DA-gGlu-gGlu-gGlu-gGlu-gGlu-gGlu-eLys(1,2)]”, for which the EC50 turned out to be 0.13 nM at hGIPR (setting [1]), 0.75 nM on hGIPR (setting [2]), 0.13 nM at hGLP1R and 20.6 nM on hNPY2R (setting [4]).
For the compound “Y[Aib]EGTFTSDYSI[Aib]LEKQAQ[Aib]AFVEWLIK([AEEA-AEEA-γGlu-γGlu-γGlu-γGlu-γGlu-C20 diacid])GGPSSPASLRHYYNWLTRQRY-NH2 [Compound 120, Y-Aib-E-G-T-F-T-S-D-Y-S-I-Aib-L-E-K-Q-A-Q-Aib-A-F-V-E-W-L-I-K(1,3)-GGPSSPASLRHYYNWLTRQRY-NH2.C20DA-gGlu-gGlu-gGlu-gGlu-gGlu-OEG-OEG(1,2)]”, the EC50 at hGIPR (setting [1]) stood at 0.34 nM; at hGIPR (setting [2]), 1.44 nM; at hGLP1R, 0.11 nM; at hNPY2R (setting [4]) it was 10.7 nM; at hNPY2R (setting [3]) it was 39.2 nM.
“H-Y[Aib]EGTFTSDYSI[Aib]LEKQAQ[Aib]EFVEWLIK([εLys-γGlu-γGlu-γGlu-γGlu-γGlu-C18 diacid])GGPSSGASLRHYYNWLTRQRY-NH2 [Compound 159, Y-Aib-E-G-T-F-T-S-D-Y-S-I-Aib-L-E-K-Q-A-Q-Aib-E-F-V-E-W-L-I-K(1,3)-GGPSSGASLRHYYNWLTRQRY-NH2.C18DA-gGlu-gGlu-gGlu-gGlu-gGlu-eLys(1,2)]”: the EC50 at hGIPR (setting [1]) was determined as 0.35 nM; at hGIPR (setting [2]), 0.91 nM; at hGLP1R, 0.19 nM; at hNPY2R (setting [4]), 13.8 nM; at hNPY2R (setting [3]) it was 34.6 nM.
For “H-Y[Aib]EGTFTSDYSI[Aib]LEKEAQ[Aib]KFVEWLIK([εLys-γGlu-γGlu-γGlu-γGlu-γGlu-γGlu-C20 diacid])GGPSSGASLRHYYNWLTRQRY-NH2 [Compound 46, Y-Aib-E-G-T-F-T-S-D-Y-S-I-Aib-L-E-K-E-A-Q-Aib-K-F-V-E-W-L-I-K(1,3)-GGPSSGASLRHYYNWLTRQRY-NH2.C20DA-gGlu-gGlu-gGlu-gGlu-gGlu-gGlu-eLys(1,2)]”, the EC50 on hGIPR (setting [1]) is 0.2 nM; on hGIPR (setting [2]), 1.21 nM; on hGLP1R, 0.21 nM; at hNPY2R (setting [4]), 10.2 nM; on hNPY2R (setting [3]), 36 nM.
